pKi: −log10 of the molar value.
The compounds below were run against WDR5 (Homo sapiens, UniProt P61964) (assay: Competition-based fluorescence polarization anisotropy assay). Conditions: binding to WDR5; displacement of FITC-labeled small molecule probe (analogous to Example J2 or HCH-25) or peptide probe FITC-AHx-SEEEIDVVSV; pH 6.0; Ki converted from IC50.
Experimental: Compounds of the present invention were assessed for their ability to bind to WDr5 using a competition-based fluorescence polarization anisotropy assay, similar to the method previously described. […] Fluorescence polarization measurements were performed in 384-well plates (Greiner Bio One) using a Cytation 3 plate reader (BioTek). Fluorescein isothiocyanate (FITC)-labeled peptide probe ([…]) was purchased from GenScript USA Inc and used without further purification. […] The assay buffer contained 200 mM phosphate, 300 mM NaCl, and 0.5 mM TCEP and 0.1% Chaps at pH 6.0. […] This was converted into a binding dissociation constant (Ki value) according to the formula: […] Data shown in the table below represents a K; determined from this method for each Example, using either a fluorescently labeled small molecule probe analogous to Example J2 or Example HCH-25, or the peptide probe described above, in the assay.

Row | pKi | SMILES
1 | 6.03 | O=C(O)c1cc(-c2ccsc2)cc(NS(=O)(=O)c2cc(Br)ccc2O)c1O [Example J195, 3-((5-Bromo-2-hydroxyphenyl)sulfonamido)-2-hydroxy-5-(thiophen-3-yl)benzoic acid]
2 | 6.77 | CNC(=O)c1cc(C2(C#N)CCC2)cc(NS(=O)(=O)c2cc(Cl)cc(Cl)c2O)c1O [Example J216, 5-(1-Cyanocyclobutyl)-3-((3,5-dichloro-2-hydroxyphenyl)sulfonamido)-2-hydroxy-N-methylbenzamide]
3 | 6.38 | CNC(=O)c1cc(C2(C#N)CCC2)cc(NS(=O)(=O)c2cc(Br)cc3cccnc23)c1O [Example J217, 3-((6-Bromoquinoline)-8-sulfonamido)-5-(1-cyanocyclobutyl)-2-hydroxy-N-methylbenzamide]
4 | 5.56 | COc1cc(F)c(Br)cc1S(=O)(=O)Nc1cc(Cl)cc(C(=O)O)c1O [Example J8, 3-((5-Bromo-4-fluoro-2-methoxyphenyl)sulfonamido)-5-chloro-2-hydroxybenzoic acid]
5 | 6.37 | O=C(NCC(O)c1ccsc1)c1cc(OC(F)(F)F)cc(NS(=O)(=O)c2cc(Br)ccc2O)c1O (stereo not drawn) [HCH-43, 3-((5-Bromo-2-hydroxyphenyl)sulfonamido)-2-hydroxy-N-(2-hydroxy-2-(thiophen-3-yl)ethyl)-5-(trifluoromethoxy)benzamide]
6 | 6.44 | NC(=O)c1c(O)c(NS(=O)(=O)c2cc(Br)ccc2O)cc(C2CC2)c1F [Example J123, 3-((5-Bromo-2-hydroxyphenyl)sulfonamido)-5-cyclopropyl-6-fluoro-2-hydroxybenzamide]
7 | 6.49 | O=C(NCc1ccco1)c1cc(Cl)cc(NS(=O)(=O)c2cc(Br)ccc2O)c1O [Example J34, 3-((5-Bromo-2-hydroxyphenyl)sulfonamido)-5-chloro-N-(furan-2-ylmethyl)-2-hydroxybenzamide]
8 | 6.21 | COCCNC(=O)c1cc(Cl)cc(NS(=O)(=O)c2cc(Br)ccc2O)c1O [Example J15, 3-((5-Bromo-2-hydroxyphenyl)sulfonamido)-5-chloro-2-hydroxy-N-(2-methoxyethyl)benzamide]
9 | 6.89 | CC(C)S(=O)(=O)c1cc(Cl)cc(NS(=O)(=O)c2cc(Br)cc(Cl)c2O)c1O [Example S23.1, 5-Bromo-3-chloro-N-(5-chloro-2-hydroxy-3-(isopropylsulfonyl)phenyl)-2-hydroxybenzenesulfonamide]
10 | 5.97 | O=C(O)c1cc(-c2cccs2)cc(NS(=O)(=O)c2cc(Br)ccc2O)c1O [Example J196, 3-((5-bromo-2-hydroxyphenyl)sulfonamido)-2-hydroxy-5-(thiophen-2-yl)benzoic acid]
11 | 4.66 | O=C(O)c1cc(Cl)cc(NS(=O)(=O)c2cc(Cl)c(F)cc2O)c1O [Example J10, 5-Chloro-3-((5-chloro-4-fluoro-2-hydroxyphenyl)sulfonamido)-2-hydroxybenzoic acid]
12 | 5.63 | O=C(c1cc(Cl)cc(NS(=O)(=O)c2cc(Br)ccc2O)c1O)N1CCOCC1 [Example J30, 5-Bromo-N-(5-chloro-2-hydroxy-3-(morpholine-4-carbonyl)phenyl)-2-hydroxybenzenesulfonamide]
13 | 6.24 | NC(=O)c1cc(OC(F)(F)F)cc(NS(=O)(=O)c2cc(Br)cc(CCCO)c2O)c1O [HCH-4, 3-((5-Bromo-2-hydroxy-3-(3-hydroxypropyl)phenyl)sulfonamido)-2-hydroxy-5-(trifluoromethoxy)benzamide]
14 | 6.96 | O=S(=O)(Nc1cc(S(F)(F)(F)(F)F)ccc1O)c1cc(Br)ccc1O [JDM-08-142A, 5-Bromo-2-hydroxy-N-(2-hydroxy-5-(pentafluorosulfanyl)phenyl)benzenesulfonamide]
15 | 5.40 | COC[C@@H]1CCCN1C(=O)c1cc(Cl)cc(NS(=O)(=O)c2cc(Br)ccc2O)c1O [Example J29, (S)-5-Bromo-N-(5-chloro-2-hydroxy-3-(2-(methoxymethyl)pyrrolidine-1-carbonyl)phenyl)-2-hydroxybenzenesulfonamide]
16 | 5.31 | COC[C@H]1CCCN1C(=O)c1cc(OC(F)(F)F)cc(NS(=O)(=O)c2cc(Cl)ccc2O)c1O [Example J177, (R)-5-Chloro-2-hydroxy-N-(2-hydroxy-3-(2-(methoxymethyl)pyrrolidine-1-carbonyl)-5-(trifluoromethoxy)phenyl)benzenesulfonamide]
17 | 6.44 | O=C(Nc1nc[nH]n1)c1cc(Cl)cc(NS(=O)(=O)c2cc(Br)ccc2O)c1 [Example J67, 3-((5-Bromo-2-hydroxyphenyl)sulfonamido)-5-chloro-N-(1H-1,2,4-triazol-3-yl)benzamide]
18 | 6.04 | CNC(=O)c1c(O)c(NS(=O)(=O)c2cc(Br)cc(F)c2O)cc(C2CC2)c1F [Example J150, 3-((5-Bromo-3-fluoro-2-hydroxyphenyl)sulfonamido)-5-cyclopropyl-6-fluoro-2-hydroxy-N-methylbenzamide]

Row | pKi | SMILES
19 | 6.21 | N#CC1(c2ccc(O)c(NS(=O)(=O)c3cc(Br)ccc3O)c2)CCCC1 [JDM-06-030A, 5-Bromo-N-(5-(1-cyanocyclopentyl)-2-hydroxyphenyl)-2-hydroxybenzenesulfonamide]
20 | 5.61 | O=C(N[C@@H]1CCOC1)c1c(O)c(NS(=O)(=O)c2cc(Br)ccc2O)cc(C2CC2)c1F [Example J132, (R)-3-((5-Bromo-2-hydroyphenyl)sulfonamido)-5-cyclopropyl-6-fluoro-2-hydroxy-N-(tetrahydrofuran-3-yl)benzamide]
21 | 5.36 | CCN(CC)CCS(=O)(=O)c1cc(Cl)cc(NS(=O)(=O)c2cc(Br)ccc2O)c1 [Example S40, 5-Bromo-N-(3-chloro-5-((2-(diethylamino)ethyl)sulfonyl)phenyl)-2-hydroxybenzenesulfonamide]
22 | 6.19 | COCCNS(=O)(=O)c1cc(Cl)cc(NS(=O)(=O)c2cc(Br)ccc2O)c1O [Example S31, 5-bromo-N-(5-chloro-2-hydroxy-3-(N-(2-methoxyethyl)sulfamoyl)phenyl)-2-hydroxybenzenesulfonamide]
23 | 7.00 | CNC(=O)c1cc(C2(C#N)CCCCC2)cc(NS(=O)(=O)c2cc(Br)ccc2O)c1O [Example J233, 3-((5-Bromo-2-hydroxyphenyl)sulfonamido)-5-(1-cyanocyclohexyl)-2-hydroxy-N-methylbenzamide]
24 | 6.66 | N#CC1(c2cc(NS(=O)(=O)c3cc(Br)ccc3O)c(O)c(C(N)=O)c2)CCCCC1 [Example J232, 3-((5-Bromo-2-hydroxyphenyl)sulfonamido)-5-(l-cyanocyclohexyl)-2-hydroxybenzamide]
25 | 6.27 | O=C(NCCO)c1cc(Cl)cc(NS(=O)(=O)c2cc(Br)ccc2O)c1O [Example J16, 3-((5-Bromo-2-hydroxyphenyl)sulfonamido)-5-chloro-2-hydroxy-N-(2-hydroxyethyl)benzamide]
26 | 7.30 | CS(=O)(=O)c1cc(C2(C#N)CCC2)cc(NS(=O)(=O)c2cc(Br)cc(Cl)c2O)c1O [Example S60, 5-Bromo-3-chloro-N-(5-(1-cyanocyclobutyl)-2-hydroxy-3-(methylsulfonyl)phenyl)-2-hydroxybenzenesulfonamide]
27 | 4.91 | O=C(NC1CCOC1)c1cc(NS(=O)(=O)c2cc(Br)ccc2O)cc(C2CC2)c1F (stereo not drawn) [Example J139, 5-((5-Bromo-2-hydroxyphenyl)sulfonamido)-3-cyclopropyl-2-fluoro-N-(tetrahydrofuran-3-yl)benzamide]
28 | 6.34 | CCc1cc(NS(=O)(=O)c2cc(Br)cc(F)c2O)c(O)c(C(=O)O)c1 [HCH-21, 3-((5-Bromo-3-fluoro-2-hydroxyphenyl)sulfonamido)-5-ethyl-2-hydroxybenzoic acid]
29 | 6.36 | COCCNC(=O)c1cc(C2(C#N)CCC2)cc(NS(=O)(=O)c2cc(Br)ccc2O)c1O [Example J219, 3-((5-Bromo-2-hydroxyphenyl)sulfonamido)-5-(1-cyanocyclobutyl)-2-hydroxy-N-(2-methoxyethyl)benzamide]
30 | 6.07 | N#CC1(c2ccc(O)c(NS(=O)(=O)c3cc(Br)ccc3O)c2)CC1 [JDM-10-107, 5-Bromo-N-(5-(1-cyanocyclopropyl)-2-hydroxyphenyl)-2-hydroxybenzenesulfonamide]
31 | 5.88 | CN(C)CCNC(=O)c1cc(C2CC2)cc(NS(=O)(=O)c2cc(Br)ccc2O)c1O [Example J89]
32 | 5.96 | Cc1sccc1-c1cc(NS(=O)(=O)c2cc(Br)ccc2O)c(O)c(C(=O)O)c1 [Example J198, 3-((5-Bromo-2-hydroxyphenyl)sulfonamido)-2-hydroxy-5-(2-methylthiophen-3-yl)benzoic acid]
33 | 6.72 | CS(=O)(=O)c1cc(C2(C#N)CCC2)cc(NS(=O)(=O)c2cc(Br)cc3cccnc23)c1O [Example S61, 6-Bromo-N-(5-(1-cyanocyclobutyl)-2-hydroxy-3-(methylsulfonyl)phenyl)quinoline-8-sulfonamide]
34 | 6.62 | O=C(NCc1cc[nH]c(=O)c1)c1cc(Cl)cc(NS(=O)(=O)c2cc(Br)ccc2O)c1O [Example J36, 3-((5-Bromo-2-hydroxyphenyl)sulfonamido)-5-chloro-2-hydroxy-N-((2-oxo-1,2-dihydropyridin-4-yl)methyl)benzamide]
35 | 4.89 | COc1cc(Cl)c(Br)cc1S(=O)(=O)Nc1cc(C2CC2)cc(C(N)=O)c1O [Example J105, 3-((5-Bromo-4-chloro-2-methoxyphenyl)sulfonamido)-5-cyclopropyl-2-hydroxybenzamide]
36 | 5.40 | COC[C@H]1CCCN1c1ccc(Br)cc1S(=O)(=O)Nc1cc(C2CC2)cc(C(=O)O)c1O [Example J78, (R)-3-((5-Bromo-2-(2-(methoxymethyl)pyrrolidin-1-yl)phenyl)sulfonamido)-5-cyclopropyl-2-hydroxybenzoic acid]
